Measured values taken from PubChem BioAssay AID503.

Target: Regulator of G-protein signaling 18 (Homo sapiens) (UniProt Q9NS28)
Assay: ligand-induced RGS18 melting temperature shift – biophysical, recombinant human protein, DSF (AID 503)
Conditions: Recombinant RGS18 DSF thermal shift, SYPRO orange; at 10 µM; protein 2 µM; buffer 10 mM HEPES; pH 7.5; NaCl 150 mM; stronger effect = higher value

Sequence of Regulator of G-protein signaling 18 (Homo sapiens) (Q9NS28 whole entry, looked up): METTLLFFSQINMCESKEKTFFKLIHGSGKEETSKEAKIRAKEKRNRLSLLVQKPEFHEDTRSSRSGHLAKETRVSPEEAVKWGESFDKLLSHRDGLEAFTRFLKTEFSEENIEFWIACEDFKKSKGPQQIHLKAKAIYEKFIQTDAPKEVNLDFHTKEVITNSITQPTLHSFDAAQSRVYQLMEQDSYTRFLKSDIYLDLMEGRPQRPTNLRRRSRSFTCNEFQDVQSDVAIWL

| Compound | Tm shift |
| --- | --- |
| O=C(Nc1cccc(Nc2cc(Nc3cccc(C(F)(F)F)c3)ncn2)c1)C1CC1 | 4 °C |
| O=C1NCc2c1c1c3ccccc3[nH]c1c1[nH]c3ccccc3c21 | 2.6 °C |
